Source: US20260256792A1, “TREATMENT OF CHRONIC SPONTANEOUS URTICARIA BY ADMINISTERING (R)-2-[3-[4-AMINO-3-(2-FLUORO-4-PHENOXY-PHENYL)PYRAZOLO[3,4-D]PYRIMIDIN-1-YL]PIPERIDINE-1-CARBONYL]-4-METHYL-4-[4-(OXETAN-3-YL)PIPERAZIN-1-YL]PENT-2-ENENITRILE” (priority 2023, published 2026)

Tested on: moderate-to-severe chronic spontaneous urticaria (CSU)
Assay: Phase 2 CSU study: hives severity score over 7 days (HSS7)
Assay type: in vivo, human
Parameters: key to HSS7 Change from baseline, Median / HSS7, Median / HSS7, Max / HSS7 Change from baseline, Q1 / HSS7 Change from baseline, Q3 / HSS7 Change from baseline, Max: 7-day sum of daily hive scores, each 0 = none to 3 = >50 hives
From the text: The study comprises a 12 week, randomized, double-blind, placebo-controlled, multi-center, dose-ranging efficacy and safety phase, followed by a 40 week open label extension (OLE) phase (see FIG. 1).
The study consists of three phases and an optional OLE phase.
The UAS is a validated PRO measure. The daily UAS is the sum of the daily Hive Severity Score (HSS, ranging from 0=None to 3=more than 50 hives) and the daily Itch Severity Score (ISS, ranging from 0=None to 3=intense), the 2 key urticaria signs and symptoms which are wheals and itch. The daily UAS scores range from 0 to 6 point/day. Daily UAS scores are summed over 7-day period to create the UAS7, ranging from 0 to 42, and are composed of the HSS7 and ISS7 components. […] Patients were to complete the UAS using the e-diary. The e-diary was to be used once daily on the same time of each day recording of participant's answers to the urticaria activity score over 7 days (UAS7) questionnaire. For participants who entered the OLE phase, their answers to the UAS7 questionnaire were also to be collected from Week 20 to Week24 and from Week 48 to Week 52.
The following secondary endpoints were to be analyzed using the same approach as for the primary endpoint: • Change from baseline in UAS7 at Week 4 • Change from baseline in UAS7 at Week 12 (for US and US reference countries) • Change from baseline in ISS7 at Week 12 (except US and US reference countries) • Change from baseline in HSS7 at Week 12

[1] = Week 10, 400 mg BID, Omalizumab-Naïve Population
[2] = Week 10, 400 mg BID, Patients with Prior Omalizumab Use
[3] = Week 10, 400 mg QPM, Omalizumab-Naïve Population
[4] = Week 10, 400 mg QPM, Patients with Prior Omalizumab Use
[5] = Week 10, 400 mg TID, Omalizumab-Naïve Population
[6] = Week 10, 400 mg TID, Patients with Prior Omalizumab Use
[7] = Week 11, 400 mg BID, Omalizumab-Naïve Population
[8] = Week 11, 400 mg BID, Patients with Prior Omalizumab Use
[9] = Week 11, 400 mg QPM, Omalizumab-Naïve Population
[10] = Week 11, 400 mg QPM, Patients with Prior Omalizumab Use
[11] = Week 11, 400 mg TID, Omalizumab-Naïve Population
[12] = Week 11, 400 mg TID, Patients with Prior Omalizumab Use
[13] = Week 12, 400 mg BID, Omalizumab-Naïve Population
[14] = Week 12, 400 mg BID, Patients with Prior Omalizumab Use
[15] = Week 12, 400 mg QPM, Omalizumab-Naïve Population
[16] = Week 12, 400 mg QPM, Patients with Prior Omalizumab Use
[17] = Week 12, 400 mg TID, Omalizumab-Naïve Population
[18] = Week 12, 400 mg TID, Patients with Prior Omalizumab Use

CC(C)(C=C(C#N)C(=O)N1CCC[C@@H](n2nc(-c3ccc(Oc4ccccc4)cc3F)c3c(N)ncnc32)C1)N1CCN(C2COC2)CC1 [rilzabrutinib, (R)-2-[3-[4-amino-3-(2-fluoro-4-phenoxy-phenyl)pyrazolo[3,4-d]pyrimidin-1-yl]piperidine-1-carbonyl]-4-methyl-4-[4-(oxetan-3-yl)piperazin-1-yl]pent-2-enenitrile]
HSS7, Median [1]: 6.50
HSS7 Change from baseline, Mean (SD) [1]: −6.95 (5.65)
HSS7 Change from baseline, Median [1]: −6.50
HSS7 Percent change from baseline, Mean (SD) [1]: −53.45 (42.56) %
HSS7 Percent change from baseline, Median [1]: −47.73%
HSS7, Mean (SD) [2]: 5.20 (7.19)
HSS7, Median [2]: 2.00
HSS7 Change from baseline, Mean (SD) [2]: −9.60 (9.13)
HSS7 Change from baseline, Median [2]: −12.00
HSS7 Percent change from baseline, Mean (SD) [2]: −58.10 (53.18) %
HSS7 Percent change from baseline, Median [2]: −90.48%
HSS7, Mean (SD) [3]: 9.88 (5.93)
HSS7, Median [3]: 8.00
HSS7 Change from baseline, Mean (SD) [3]: −5.27 (5.66)
HSS7 Change from baseline, Median [3]: −4.00
HSS7 Percent change from baseline, Mean (SD) [3]: −33.86 (34.68) %
HSS7 Percent change from baseline, Median [3]: −28.64%
HSS7, Mean (SD) [4]: 8.00 (NC)
HSS7, Median [4]: 8.00
HSS7 Change from baseline, Mean (SD) [4]: −12.00 (NC)
HSS7 Change from baseline, Median [4]: −12.00
HSS7 Percent change from baseline, Mean (SD) [4]: −60.00 (NC) %
HSS7 Percent change from baseline, Median [4]: −60.00%
HSS7, Mean (SD) [5]: 5.87 (5.06)
HSS7, Median [5]: 4.50
HSS7 Change from baseline, Mean (SD) [5]: −8.20 (5.62)
HSS7 Change from baseline, Median [5]: −9.00
HSS7 Percent change from baseline, Mean (SD) [5]: −57.32 (34.80) %
HSS7 Percent change from baseline, Median [5]: −63.10%
HSS7, Mean (SD) [6]: 3.00 (4.65)
HSS7, Median [6]: 1.00
HSS7 Change from baseline, Mean (SD) [6]: −13.03 (7.21)
HSS7 Change from baseline, Median [6]: −13.00
HSS7 Percent change from baseline, Mean (SD) [6]: −79.31 (25.96) %
HSS7 Percent change from baseline, Median [6]: −91.50%
HSS7, Mean (SD) [7]: 7.13 (7.07)
HSS7, Median [7]: 5.83
HSS7 Change from baseline, Mean (SD) [7]: −7.34 (6.14)
HSS7 Change from baseline, Median [7]: −7.00
HSS7 Percent change from baseline, Mean (SD) [7]: −52.82 (41.27) %
HSS7 Percent change from baseline, Median [7]: −54.55%
HSS7, Mean (SD) [8]: 4.80 (7.46)
HSS7, Median [8]: 0.00
HSS7 Change from baseline, Mean (SD) [8]: −10.00 (9.67)
HSS7 Change from baseline, Median [8]: −12.00
HSS7 Percent change from baseline, Median [8]: −100.00%
HSS7, Mean (SD) [9]: 10.18 (6.18)
HSS7, Median [9]: 9.33
HSS7 Change from baseline, Mean (SD) [9]: −5.18 (5.64)
HSS7 Change from baseline, Median [9]: 3.00
HSS7 Percent change from baseline, Mean (SD) [9]: −33.21 (36.21) %
HSS7 Percent change from baseline, Median [9]: −30.00%
HSS7, Mean (SD) [10]: 9.00 (NC)
HSS7, Median [10]: 9.00
HSS7 Change from baseline, Mean (SD) [10]: −11.00 (NC)
HSS7 Change from baseline, Median [10]: −11.00
HSS7 Percent change from baseline, Mean (SD) [10]: −55.00 (NC) %
HSS7 Percent change from baseline, Median [10]: −55.00%
HSS7, Mean (SD) [11]: 6.17 (5.40)
HSS7, Median [11]: 5.83
HSS7 Change from baseline, Mean (SD) [11]: −7.90 (6.07)
HSS7 Change from baseline, Median [11]: −8.00
HSS7 Percent change from baseline, Mean (SD) [11]: −55.30 (37.59) %
HSS7 Percent change from baseline, Median [11]: −61.11%
HSS7, Mean (SD) [12]: 2.67 (4.84)
HSS7, Median [12]: 0.00
HSS7 Change from baseline, Mean (SD) [12]: −13.36 (7.26)
HSS7 Change from baseline, Median [12]: −13.00
HSS7 Percent change from baseline, Mean (SD) [12]: −82.14 (27.76) %
HSS7 Percent change from baseline, Median [12]: −100.00%
HSS7, Mean (SD) [13]: 7.52 (7.21)
HSS7, Median [13]: 7.00
HSS7 Change from baseline, Mean (SD) [13]: −7.09 (6.54)
HSS7 Change from baseline, Median [13]: −4.50
HSS7 Percent change from baseline, Mean (SD) [13]: −49.56 (40.81) %
HSS7 Percent change from baseline, Median [13]: −37.50%
HSS7, Mean (SD) [14]: 4.25 (8.50)
HSS7, Median [14]: 0.00
HSS7 Change from baseline, Median [14]: −14.50
HSS7 Percent change from baseline, Mean (SD) [14]: −75.00 (50.00) %
HSS7 Percent change from baseline, Median [14]: −100.00%
HSS7, Median [15]: 8.58
HSS7 Change from baseline, Mean (SD) [15]: −4.85 (5.63)
HSS7 Change from baseline, Median [15]: −4.00
HSS7 Percent change from baseline, Mean (SD) [15]: −31.20 (34.88) %
HSS7 Percent change from baseline, Median [15]: −33.18%
HSS7, Mean (SD) [16]: 9.00 (NC)
HSS7, Median [16]: 9.00
HSS7 Change from baseline, Mean (SD) [16]: −11.00 (NC)
HSS7 Change from baseline, Median [16]: −11.00
HSS7 Percent change from baseline, Mean (SD) [16]: −55.00 (NC) %
HSS7 Percent change from baseline, Median [16]: −55.00%
HSS7, Mean (SD) [17]: 5.23 (4.86)
HSS7, Median [17]: 4.08
HSS7 Change from baseline, Mean (SD) [17]: −8.77 (5.84)
HSS7 Change from baseline, Median [17]: −8.00
HSS7 Percent change from baseline, Mean (SD) [17]: −60.93 (34.27) %
HSS7 Percent change from baseline, Median [17]: −64.29%
HSS7, Mean (SD) [18]: 3.20 (5.22)
HSS7, Median [18]: 0.00
HSS7 Change from baseline, Mean (SD) [18]: −14.40 (7.60)
HSS7 Change from baseline, Median [18]: −17.00
HSS7 Percent change from baseline, Mean (SD) [18]: −78.57 (29.45) %
HSS7 Percent change from baseline, Median [18]: −100.00%
